For 9 molecules, AC50 results are on record in ChEMBL document CHEMBL5291721, “A preclinical secondary pharmacology resource illuminates target-adverse drug reaction associations of marketed drugs” (Nat Commun, 2023).

The target of test [1] is Prostaglandin G/H synthase 1 (Homo sapiens, UniProt P23219). Type of test: functional.
Test [2] concerns the target Voltage-gated inwardly rectifying potassium channel KCNH2 (Homo sapiens, UniProt Q12809). Type of test: functional.
The target in test [3] is 3',5'-cyclic-AMP phosphodiesterase 4A (Homo sapiens, UniProt P27815). Type of test: functional.
For test [4], the target named is 5-hydroxytryptamine receptor 2B (Homo sapiens, UniProt P41595). In kind it is functional, cell-based.
The target of test [5] is T1, Alpha-2A adrenergic receptor (Homo sapiens, UniProt P08913).
T1 sequence (P08913 whole entry): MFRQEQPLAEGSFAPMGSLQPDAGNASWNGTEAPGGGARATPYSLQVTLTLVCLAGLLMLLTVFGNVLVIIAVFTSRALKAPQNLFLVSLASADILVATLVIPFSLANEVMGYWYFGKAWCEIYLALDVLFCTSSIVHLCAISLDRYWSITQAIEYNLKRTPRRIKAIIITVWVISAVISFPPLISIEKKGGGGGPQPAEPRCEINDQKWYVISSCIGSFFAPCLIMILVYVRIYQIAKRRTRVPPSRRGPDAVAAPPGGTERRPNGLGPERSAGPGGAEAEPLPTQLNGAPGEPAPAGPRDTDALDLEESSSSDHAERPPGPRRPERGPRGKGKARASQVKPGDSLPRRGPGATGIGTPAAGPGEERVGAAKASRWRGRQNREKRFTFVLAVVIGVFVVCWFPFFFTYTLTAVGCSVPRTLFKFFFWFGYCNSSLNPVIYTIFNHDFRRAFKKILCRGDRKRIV

A further test has as its target Histamine H3 receptor (Homo sapiens, UniProt Q9Y5N1).
Test [6] has as its target Sodium-dependent dopamine transporter (Homo sapiens, UniProt Q01959).
In a further test the target is Acetylcholinesterase (Homo sapiens, UniProt P22303). Type of test: functional.
Test [7] deals with T2, Muscarinic acetylcholine receptor M2 (Homo sapiens, UniProt P08172).
T2 sequence (P08172 whole entry): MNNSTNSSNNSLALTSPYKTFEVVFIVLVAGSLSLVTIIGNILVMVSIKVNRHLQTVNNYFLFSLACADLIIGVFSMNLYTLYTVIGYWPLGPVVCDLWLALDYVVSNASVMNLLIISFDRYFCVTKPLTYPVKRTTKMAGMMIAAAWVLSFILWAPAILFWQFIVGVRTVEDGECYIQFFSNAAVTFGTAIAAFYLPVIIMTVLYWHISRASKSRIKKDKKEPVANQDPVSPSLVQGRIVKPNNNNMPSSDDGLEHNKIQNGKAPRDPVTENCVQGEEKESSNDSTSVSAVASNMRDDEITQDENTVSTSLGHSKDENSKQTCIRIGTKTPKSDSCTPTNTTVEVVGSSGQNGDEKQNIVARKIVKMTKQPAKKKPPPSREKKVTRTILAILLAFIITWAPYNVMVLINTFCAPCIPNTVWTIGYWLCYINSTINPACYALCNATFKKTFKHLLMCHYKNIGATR

Test [8] addresses T3, Thromboxane A2 receptor (Homo sapiens, UniProt P21731).
T3 sequence (P21731 whole entry): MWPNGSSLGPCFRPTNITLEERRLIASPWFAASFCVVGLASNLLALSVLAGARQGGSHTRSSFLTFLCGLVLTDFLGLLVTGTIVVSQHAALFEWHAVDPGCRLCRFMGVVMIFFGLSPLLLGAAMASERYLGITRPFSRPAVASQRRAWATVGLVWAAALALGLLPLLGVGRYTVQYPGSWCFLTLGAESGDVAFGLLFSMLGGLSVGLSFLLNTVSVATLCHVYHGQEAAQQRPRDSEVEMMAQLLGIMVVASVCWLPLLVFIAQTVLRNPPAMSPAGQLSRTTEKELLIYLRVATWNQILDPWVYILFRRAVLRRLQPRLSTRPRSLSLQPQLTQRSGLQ
In kind it is functional, cell-based.

Test [9] addresses T3, Thromboxane A2 receptor. In kind it is functional, cell-based. The source holds these as a separate data set.
The target in test [10] is cGMP-inhibited 3',5'-cyclic phosphodiesterase 3A (Homo sapiens, UniProt Q14432). In kind it is functional.
In test [11] the target is T4, Amine oxidase [flavin-containing] A (Homo sapiens, UniProt P21397).
T4 sequence (P21397 whole entry): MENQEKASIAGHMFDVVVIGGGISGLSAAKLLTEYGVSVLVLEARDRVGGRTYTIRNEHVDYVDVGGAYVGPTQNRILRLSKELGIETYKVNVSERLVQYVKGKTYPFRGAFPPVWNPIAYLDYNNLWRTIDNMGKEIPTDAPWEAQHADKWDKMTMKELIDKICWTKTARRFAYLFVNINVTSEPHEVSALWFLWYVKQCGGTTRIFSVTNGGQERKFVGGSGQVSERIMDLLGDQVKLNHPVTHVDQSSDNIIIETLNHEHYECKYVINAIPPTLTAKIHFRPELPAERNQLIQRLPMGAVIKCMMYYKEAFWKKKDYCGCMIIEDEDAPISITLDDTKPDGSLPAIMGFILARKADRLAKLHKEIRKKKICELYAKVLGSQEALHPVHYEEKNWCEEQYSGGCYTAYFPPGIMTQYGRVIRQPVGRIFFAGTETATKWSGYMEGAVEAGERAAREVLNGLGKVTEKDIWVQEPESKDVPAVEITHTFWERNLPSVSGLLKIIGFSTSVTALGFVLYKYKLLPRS
In kind it is functional.

Another test deals with Prothrombin (Homo sapiens, UniProt P00734). Type of test: functional.
For test [12], the target named is T5, 5-hydroxytryptamine receptor 1A (Homo sapiens, UniProt P08908).
T5 sequence (P08908 whole entry): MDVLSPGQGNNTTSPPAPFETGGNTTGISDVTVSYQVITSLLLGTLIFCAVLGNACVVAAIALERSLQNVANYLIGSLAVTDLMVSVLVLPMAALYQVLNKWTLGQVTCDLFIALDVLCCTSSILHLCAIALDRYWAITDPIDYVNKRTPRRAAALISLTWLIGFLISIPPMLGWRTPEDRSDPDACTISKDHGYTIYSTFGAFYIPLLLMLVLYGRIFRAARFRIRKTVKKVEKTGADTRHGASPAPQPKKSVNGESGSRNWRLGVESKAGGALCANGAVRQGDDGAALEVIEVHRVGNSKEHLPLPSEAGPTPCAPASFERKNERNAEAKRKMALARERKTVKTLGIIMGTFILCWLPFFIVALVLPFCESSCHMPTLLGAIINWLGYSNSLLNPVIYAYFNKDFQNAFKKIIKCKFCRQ

The AC50 is the concentration at which the activity in the assay is half-maximal. A lower AC50 goes with activity at low concentration.
Further: assay procedure not described here.

Sequence of 5-hydroxytryptamine receptor 2B (P41595 whole entry): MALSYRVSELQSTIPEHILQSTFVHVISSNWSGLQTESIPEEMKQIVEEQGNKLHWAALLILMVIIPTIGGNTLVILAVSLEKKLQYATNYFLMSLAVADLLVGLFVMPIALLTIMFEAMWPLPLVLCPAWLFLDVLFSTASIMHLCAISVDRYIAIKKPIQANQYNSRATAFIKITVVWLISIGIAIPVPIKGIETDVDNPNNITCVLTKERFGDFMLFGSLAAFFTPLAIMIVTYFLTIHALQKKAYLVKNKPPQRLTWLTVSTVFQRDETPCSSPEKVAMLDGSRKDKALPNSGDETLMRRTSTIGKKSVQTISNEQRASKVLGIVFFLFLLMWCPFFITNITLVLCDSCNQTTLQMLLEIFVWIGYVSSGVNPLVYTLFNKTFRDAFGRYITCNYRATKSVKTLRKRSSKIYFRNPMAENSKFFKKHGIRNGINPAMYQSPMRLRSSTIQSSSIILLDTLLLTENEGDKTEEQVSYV
Sequence of 3',5'-cyclic-AMP phosphodiesterase 4A (P27815 whole entry): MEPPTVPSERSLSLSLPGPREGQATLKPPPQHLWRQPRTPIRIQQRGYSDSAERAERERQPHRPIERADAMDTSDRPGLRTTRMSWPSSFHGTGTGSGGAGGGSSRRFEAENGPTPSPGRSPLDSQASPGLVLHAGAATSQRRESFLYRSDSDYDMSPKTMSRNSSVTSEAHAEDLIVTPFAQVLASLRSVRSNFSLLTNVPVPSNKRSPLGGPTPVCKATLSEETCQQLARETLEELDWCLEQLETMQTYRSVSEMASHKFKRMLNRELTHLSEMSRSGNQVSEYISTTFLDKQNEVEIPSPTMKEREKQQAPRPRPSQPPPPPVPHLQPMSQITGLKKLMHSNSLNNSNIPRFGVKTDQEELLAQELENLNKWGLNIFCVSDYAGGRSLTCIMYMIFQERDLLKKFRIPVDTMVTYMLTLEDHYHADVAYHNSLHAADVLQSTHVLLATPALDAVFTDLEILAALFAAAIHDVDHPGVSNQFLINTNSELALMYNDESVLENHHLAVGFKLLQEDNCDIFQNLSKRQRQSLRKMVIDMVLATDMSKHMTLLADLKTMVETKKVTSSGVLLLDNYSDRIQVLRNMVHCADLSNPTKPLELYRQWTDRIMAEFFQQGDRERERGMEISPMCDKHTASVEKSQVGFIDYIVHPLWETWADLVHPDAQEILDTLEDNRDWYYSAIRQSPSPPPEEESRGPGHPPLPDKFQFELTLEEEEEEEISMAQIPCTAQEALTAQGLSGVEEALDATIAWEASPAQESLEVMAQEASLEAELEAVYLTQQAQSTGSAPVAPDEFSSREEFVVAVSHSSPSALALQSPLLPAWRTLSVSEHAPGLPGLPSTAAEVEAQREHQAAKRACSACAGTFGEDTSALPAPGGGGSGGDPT
Sequence of Acetylcholinesterase (P22303 whole entry): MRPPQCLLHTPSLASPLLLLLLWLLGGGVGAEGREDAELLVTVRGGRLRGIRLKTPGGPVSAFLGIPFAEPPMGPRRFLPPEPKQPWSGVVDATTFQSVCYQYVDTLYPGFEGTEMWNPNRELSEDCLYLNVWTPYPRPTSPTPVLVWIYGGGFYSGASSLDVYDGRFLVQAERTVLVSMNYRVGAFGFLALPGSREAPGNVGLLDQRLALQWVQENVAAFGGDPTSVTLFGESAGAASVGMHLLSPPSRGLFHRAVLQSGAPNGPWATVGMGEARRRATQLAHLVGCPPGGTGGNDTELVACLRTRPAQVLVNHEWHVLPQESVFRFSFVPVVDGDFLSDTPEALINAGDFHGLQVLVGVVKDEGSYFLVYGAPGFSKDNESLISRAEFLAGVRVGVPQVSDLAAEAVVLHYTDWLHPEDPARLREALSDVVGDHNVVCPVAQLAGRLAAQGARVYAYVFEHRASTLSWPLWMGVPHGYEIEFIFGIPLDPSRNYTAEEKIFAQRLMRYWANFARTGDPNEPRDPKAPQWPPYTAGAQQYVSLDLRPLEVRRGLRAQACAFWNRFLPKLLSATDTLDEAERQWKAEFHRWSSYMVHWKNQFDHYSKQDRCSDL
Sequence of cGMP-inhibited 3',5'-cyclic phosphodiesterase 3A (Q14432 whole entry): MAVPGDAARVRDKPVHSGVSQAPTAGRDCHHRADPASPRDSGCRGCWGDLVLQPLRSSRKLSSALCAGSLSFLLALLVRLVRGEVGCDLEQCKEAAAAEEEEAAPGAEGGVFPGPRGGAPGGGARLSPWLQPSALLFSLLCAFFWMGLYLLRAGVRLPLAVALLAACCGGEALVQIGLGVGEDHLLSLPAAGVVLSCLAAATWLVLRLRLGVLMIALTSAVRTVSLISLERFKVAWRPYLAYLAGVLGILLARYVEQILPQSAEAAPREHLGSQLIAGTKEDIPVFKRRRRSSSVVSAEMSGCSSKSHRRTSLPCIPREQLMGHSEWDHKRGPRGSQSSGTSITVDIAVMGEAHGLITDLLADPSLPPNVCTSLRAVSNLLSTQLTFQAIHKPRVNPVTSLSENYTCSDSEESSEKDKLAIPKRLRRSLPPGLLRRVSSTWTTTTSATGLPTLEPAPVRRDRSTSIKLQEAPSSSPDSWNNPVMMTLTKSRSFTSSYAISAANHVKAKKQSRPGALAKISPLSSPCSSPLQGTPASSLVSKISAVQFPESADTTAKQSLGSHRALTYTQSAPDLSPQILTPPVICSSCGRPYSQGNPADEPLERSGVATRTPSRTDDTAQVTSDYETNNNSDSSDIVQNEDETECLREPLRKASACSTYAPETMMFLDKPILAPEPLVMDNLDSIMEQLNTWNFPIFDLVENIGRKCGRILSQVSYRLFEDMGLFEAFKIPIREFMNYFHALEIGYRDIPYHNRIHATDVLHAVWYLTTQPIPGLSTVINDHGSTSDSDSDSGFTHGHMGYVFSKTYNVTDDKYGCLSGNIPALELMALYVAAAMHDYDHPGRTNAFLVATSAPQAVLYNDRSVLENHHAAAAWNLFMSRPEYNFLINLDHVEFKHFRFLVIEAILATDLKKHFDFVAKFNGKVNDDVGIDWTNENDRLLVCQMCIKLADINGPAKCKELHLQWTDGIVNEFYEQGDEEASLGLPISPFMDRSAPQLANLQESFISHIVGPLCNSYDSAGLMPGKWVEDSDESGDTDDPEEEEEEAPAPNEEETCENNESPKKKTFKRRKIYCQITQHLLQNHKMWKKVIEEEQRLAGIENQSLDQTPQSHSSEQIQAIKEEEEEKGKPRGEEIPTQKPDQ
Sequence of Histamine H3 receptor (Q9Y5N1 whole entry): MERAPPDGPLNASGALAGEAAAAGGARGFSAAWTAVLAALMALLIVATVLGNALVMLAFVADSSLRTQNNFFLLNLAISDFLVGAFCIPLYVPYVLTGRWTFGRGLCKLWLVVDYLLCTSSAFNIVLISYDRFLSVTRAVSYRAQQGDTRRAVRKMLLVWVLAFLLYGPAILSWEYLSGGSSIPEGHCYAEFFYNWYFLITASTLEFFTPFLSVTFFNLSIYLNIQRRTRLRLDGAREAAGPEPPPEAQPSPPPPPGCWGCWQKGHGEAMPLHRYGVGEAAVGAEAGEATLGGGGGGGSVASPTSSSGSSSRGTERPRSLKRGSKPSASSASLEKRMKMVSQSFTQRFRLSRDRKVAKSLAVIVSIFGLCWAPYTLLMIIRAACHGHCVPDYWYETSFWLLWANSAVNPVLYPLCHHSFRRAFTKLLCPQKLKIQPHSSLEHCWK
Sequence of Voltage-gated inwardly rectifying potassium channel KCNH2 (Q12809 whole entry): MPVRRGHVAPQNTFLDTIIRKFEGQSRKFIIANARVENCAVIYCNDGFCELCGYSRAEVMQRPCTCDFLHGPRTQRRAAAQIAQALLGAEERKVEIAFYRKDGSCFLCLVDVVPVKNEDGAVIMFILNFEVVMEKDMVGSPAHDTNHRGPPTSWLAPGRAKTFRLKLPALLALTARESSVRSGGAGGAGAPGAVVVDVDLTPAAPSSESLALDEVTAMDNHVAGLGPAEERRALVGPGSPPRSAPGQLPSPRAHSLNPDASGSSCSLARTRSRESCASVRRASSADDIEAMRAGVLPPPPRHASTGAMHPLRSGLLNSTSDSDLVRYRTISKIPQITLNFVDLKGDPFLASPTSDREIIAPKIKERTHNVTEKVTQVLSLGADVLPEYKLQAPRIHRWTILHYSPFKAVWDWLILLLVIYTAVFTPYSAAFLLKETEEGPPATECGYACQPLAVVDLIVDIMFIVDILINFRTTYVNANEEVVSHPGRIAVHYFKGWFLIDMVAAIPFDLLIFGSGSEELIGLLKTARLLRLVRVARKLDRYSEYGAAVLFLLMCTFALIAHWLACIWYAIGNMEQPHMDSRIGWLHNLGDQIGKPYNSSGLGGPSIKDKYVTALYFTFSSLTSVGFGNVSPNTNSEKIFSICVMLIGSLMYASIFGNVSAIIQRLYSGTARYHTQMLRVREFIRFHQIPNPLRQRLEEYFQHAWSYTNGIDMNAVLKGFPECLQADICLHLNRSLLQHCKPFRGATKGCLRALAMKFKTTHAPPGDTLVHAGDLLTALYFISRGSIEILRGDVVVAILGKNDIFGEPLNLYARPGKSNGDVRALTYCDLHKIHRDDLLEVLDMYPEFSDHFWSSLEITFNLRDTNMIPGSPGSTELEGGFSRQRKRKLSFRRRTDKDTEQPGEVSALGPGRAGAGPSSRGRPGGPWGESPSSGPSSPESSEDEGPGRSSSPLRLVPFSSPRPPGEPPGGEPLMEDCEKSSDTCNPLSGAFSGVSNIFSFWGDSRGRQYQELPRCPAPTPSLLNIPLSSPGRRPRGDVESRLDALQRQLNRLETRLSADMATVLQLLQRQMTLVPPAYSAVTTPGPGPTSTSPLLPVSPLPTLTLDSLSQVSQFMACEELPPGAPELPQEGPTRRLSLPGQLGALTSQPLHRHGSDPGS

Regarding `Cc1cc2c(cc1S(N)(=O)=O)S(=O)(=O)CCC2`, the AC50 (in test [1]; in test [2]; in test [3]; in test [4]; in test [5]; on Histamine H3 receptor) was more than 30 µM throughout. In addition, the AC50 (in test [6]; at Acetylcholinesterase; in [7]; at Thromboxane A2 receptor [8]; at Thromboxane A2 receptor [9]; in [10]) was more than 30 µM each time. Besides, the AC50 (in test [11]; on Prothrombin; in [12]) was more than 30 µM each time.
Consider `O=C(O)[C@@H]1C[C@@H](O)CN1`, for which the AC50 (in test [1]; in test [2]; in [3]; in test [4]; in [5]; on Histamine H3 receptor) was more than 30 µM throughout. In addition, the AC50 (in test [6]; at Acetylcholinesterase; in test [7]; at Thromboxane A2 receptor [8]; on Thromboxane A2 receptor [9]; in test [10]) was more than 30 µM each time. Further, the AC50 (in test [11]; at Prothrombin; in test [12]) was more than 30 µM each time.
With `NC(=O)[C@@H]1CC[C@@H]2CN1C(=O)N2OS(=O)(=O)O` [AVIBACTAM], the AC50 (in test [1]; in test [2]; in [3]; in [4]; in [5]; on Histamine H3 receptor) was more than 30 µM throughout. Also, the AC50 (in test [6]; on Acetylcholinesterase; in test [7]; on Thromboxane A2 receptor [8]; at Thromboxane A2 receptor [9]; in [10]) was more than 30 µM each time. Further, the AC50 (in test [11]; on Prothrombin; in [12]) was more than 30 µM each time.
Turning to `CC(C)(C)NC(=O)N[C@H](C(=O)N1C[C@H]2[C@@H]([C@H]1C(=O)NC(CC1CCC1)C(=O)C(N)=O)C2(C)C)C(C)(C)C` (stereo not given in full) [BOCEPREVIR], the AC50 (in test [1]; in [2]; in [3]; in test [4]; in test [5]; at Histamine H3 receptor) was more than 30 µM in each case. Besides, the AC50 (in test [6]; at Acetylcholinesterase; in test [7]; at Thromboxane A2 receptor [8]; on Thromboxane A2 receptor [9]; in test [10]) was more than 30 µM each time. In addition, the AC50 (in test [11]; on Prothrombin; in test [12]) was more than 30 µM in each case.
Turning to `CC(O)(P(=O)(O)O)P(=O)(O)O` [ETIDRONIC ACID], the AC50 (in test [1]; in test [3]; in [4]; in test [5]; at Histamine H3 receptor; in test [6]) was more than 30 µM in each case. In addition, the AC50 (at Acetylcholinesterase; in test [7]; at Thromboxane A2 receptor [8]; at Thromboxane A2 receptor [9]; in test [10]; in [11]) was more than 30 µM throughout. Further, the AC50 (on Prothrombin; in [12]) was more than 30 µM each time.
As for `O=C(CCC/C=C\C[C@@H]1[C@@H](CC[C@@H](O)CCc2ccccc2)[C@H](O)C[C@@H]1O)OCCCCO[N+](=O)[O-]` [LATANOPROSTENE BUNOD], the AC50 was 13.5 µM in test [1]; more than 30 µM in [3]; more than 30 µM in test [4]; more than 30 µM in [5]; more than 30 µM at Histamine H3 receptor; more than 30 µM in test [6]. Moreover, the AC50 is more than 30 µM at Acetylcholinesterase; more than 30 µM in [7]; more than 30 µM at Thromboxane A2 receptor [8]; more than 10 µM at Thromboxane A2 receptor [9]; more than 30 µM in [10]; more than 30 µM in [11]. In addition, the AC50 (on Prothrombin; in test [12]) was more than 30 µM in each case.
Consider `CCC[C@H](N[C@@H](C)C(=O)N1[C@H](C(=O)O)C[C@@H]2CCCC[C@@H]21)C(=O)OCC` [PERINDOPRIL], for which the AC50 (in [1]; in test [3]; in test [4]; in [5]; on Histamine H3 receptor; in test [6]) was more than 30 µM throughout. Moreover, the AC50 (at Acetylcholinesterase; in test [7]; on Thromboxane A2 receptor [8]; at Thromboxane A2 receptor [9]; in test [10]; in [11]) was more than 30 µM in each case. Further, the AC50 (on Prothrombin; in test [12]) was more than 30 µM each time.
On to `COc1cc(C)c2c(Oc3cccc(C(F)(F)F)c3)c(OC)cc(NC(C)CCCN)c2n1` (stereo not given) [TAFENOQUINE], for which the AC50 was 3.81 µM in test [1]; more than 30 µM in test [3]; more than 30 µM in [4]; more than 30 µM in test [5]; more than 30 µM at Histamine H3 receptor; 5.98 µM in test [6]. Further, the AC50 on Acetylcholinesterase was more than 30 µM; in test [7] it was more than 30 µM; on Thromboxane A2 receptor [8], more than 3 µM; on Thromboxane A2 receptor [9], more than 3 µM; in [10], more than 30 µM; in test [11], more than 30 µM. For the same molecule, the AC50 was more than 30 µM at Prothrombin and 11.3 µM in test [12].
As to `COc1ccc2c(C(=S)N(C)CC(=O)O)cccc2c1C(F)(F)F` [TOLRESTAT], the AC50 (in test [1]; in test [3]; in test [4]; in test [5]; at Histamine H3 receptor; in [6]) was more than 30 µM throughout. The AC50 (on Acetylcholinesterase; in test [7]; on Thromboxane A2 receptor [8]; on Thromboxane A2 receptor [9]; in [10]; in test [11]) was more than 30 µM in each case. Besides, the AC50 (at Prothrombin; in test [12]) was more than 30 µM in each case.
